Consider 6 molecules from BindingDB's records for doi:10.7270/Q2M043S8 (University of Pittsburgh, 2006).

Some results are limits rather than exact numbers.

The IC50 is the concentration that inhibits the measured activity by half.

For this test, the target named is T1, Dual specificity protein phosphatase 6 (Rattus norvegicus, UniProt Q64346).
T1 sequence (Q64346 whole entry): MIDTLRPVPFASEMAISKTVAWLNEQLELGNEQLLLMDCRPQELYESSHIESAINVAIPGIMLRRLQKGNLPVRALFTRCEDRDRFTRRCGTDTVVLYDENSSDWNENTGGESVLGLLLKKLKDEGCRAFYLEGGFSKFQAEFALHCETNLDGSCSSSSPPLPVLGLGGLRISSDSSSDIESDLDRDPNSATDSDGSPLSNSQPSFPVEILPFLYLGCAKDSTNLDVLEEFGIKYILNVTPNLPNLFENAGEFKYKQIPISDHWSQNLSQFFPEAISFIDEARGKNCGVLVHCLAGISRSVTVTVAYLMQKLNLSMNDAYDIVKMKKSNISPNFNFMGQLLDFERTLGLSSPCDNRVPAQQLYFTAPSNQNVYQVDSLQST
The experiment in a line: catalase influence on rat DUSP6 inhibition – biochemical, catalase added, probe assessment, dose response (AID 564).
Regarding `CCOC(=O)c1ccc2c(c1)C1C=CCC1C(C(=O)O)N2` (stereo unspecified) [MLS-0025126.0001], the IC50 is more than 50 µM.

The molecule `O=C(NC1(O)C(=O)c2ccccc2C1=O)c1ccccc1` [N-(2-hydroxy-1,3-dioxo-2-indenyl)benzamide] yielded an IC50 of more than 50 µM.

`O=C(OC1CCCCC1)c1ccc2c(c1)C1C=CCC1C(C(=O)O)N2` (stereo unspecified) [SMR000019385] showed an IC50 of more than 50 µM.

The molecule `O=C1c2ccccc2-c2onc3ccc(NCCCn4ccnc4)c1c23` [SMR000044769] had an IC50 of 47.6 µM.

Take `CCCCn1c(NC(=O)c2ccccc2)c(C#N)c2nc3ccccc3nc21` [SMR000060333]: the IC50 was more than 50 µM.

As to `N#Cc1c(N2CCCC2)nc(N)c2c(N)nc(N3CCCC3)cc12` [SMR000061605], the IC50 was more than 50 µM.
